# Experimental data as given in PubChem BioAssay AID1963423 (Molecular Pharmacology Branch, DTP, NCI, 2024).
# Tested on: 439559-082-T-J2-PDC complex spheroid growth
# Assay: Anticancer human tumor 439559-082-T-J2-PDC patient-derived colon adenocarcinoma cell line growth inhibition [Asc]
# Conditions: for IC50: curve of first compound; for viability, T/C: stronger effect = lower value
# Description: Multicellular complex tumor spheroid response to apoptosis pathway targeting inhibitors Alrizomadlin, Pelcitoclax, and Dasminapant in combination with a variety of drugs and investigational agents in selected tumor cell lines
# The MDM2 inhibitor alrizomadlin, the Bcl-2/Bcl-xL inhibitor pelcitoclax, and the IAPs inhibitor dasminapant were evaluated both individually and in combination with standard of care and investigational anticancer small molecules within a complex spheroid model of solid tumors. . Complex spheroids include a stromal component modeled by human endothelial cells (HUVEC) and fibroblasts modeled by human mesenchymal stem cells (MSCs). The concentration ranges selected for each drug and investigational agent were based upon clinically achievable concentrations if the clinical Cmax of the agent was known.
# Compounds. The drugs and investigational agents: alrizomadlin (APG-115; NSC831270), pelcitoclax (APG-1252; NSC835773), dasminapant (APG-1387;NSC834197), TAK-243 (NSC785004), copanlisib (NSC809693), olaparib (NSC753686), talazoparib (NSC767125), cobimetinib (NSC 768068), eltanexor (KPT-8602, NSC 794443), abemaciclib (NSC 768073), sotorasib (NSC818433), adagrasib (NSC 831453), MRTX-1133 (NSC 836407), Iadademestat (ORY1001, NSC 806812), and RMC-4630 (NSC839698), were obtained from the NCI Developmental Therapeutics Program Chemical Repository. The FDA-approved anticancer drug set is available from the Developmental Therapeutics Program at https://dtp.cancer.gov/organization/dscb/obtaining/available plates.htm. […] The stock solutions were prepared in dimethyl sulfoxide (DMSO, Sigma-Aldrich, St. Louis, MO, cat. D2650) at 800-fold the tested concentration and stored at -70 degrees C prior to their use. All drugs and investigational agents were tested over a range starting from a high concentration at or near the clinical Cmax and decreasing in half-log increments. If the clinical Cmax for an agent had not been determined, the highest concentration tested was 10 microM.
# The patient-derived cancer (PDC) cell lines include five colon adenocarcinomas: 186277-243-T-J2-PDC, 616215-338-R-J1-PDC, 439559-082-T-J2-PDC, 463943-066-T-J2-PDC, and 519858-162-T-J1-PDC; three pancreatic carcinomas: 323965-272-R-J2-PDC, 521955-158-R6-J3-PDC, and 521955-158-R2-J5-PDC; two uterine sarcomas: 327498-152-R-J2-PDC and 993429-296-R-J1-PDC; two rhabdomyosarcomas: 755483-174-R-J1-PDC and 772245-204-R-J1-PDC; two soft tissue sarcomas: 126254-015-R-J1-PDC and 494315-158-R-J1-PDC; two malignant fibrous histiocytomas: 317291-083-R-J1-PDC and 596521-263-R-J1-PDC; two breast carcinomas: 171881-019-R-J1-PDC and 885512-296-R-J2-PDC; and one ovarian carcinoma: 6556581-035-R-J-PDC were obtained from the NCI PDMR, (https://pdmr.cancer.gov). The established cell lines HSSY-2 synovial sarcoma (RRID:CVCL 8719), SYO-1 synovial sarcoma (RRID:CVCL_7146), MPNST malignant peripheral neural sheath tumor were obtained from the Sloan Kettering Institute. The following established cell lines were purchased from the American Type Culture Collection (ATCC, Manassas, VA), Sor the received from the NCI repository:, PANC-1 pancreatic carcinoma (CRL-1469, RRID:CVCL_0480), OVCAR-5 ovarian carcinoma (RRID:CVCL_1628), OVCAR-8 ovarian carcinoma (RRID:CVCL_1629), , MCF-7 breast carcinoma (CRL-12584, RRID:CVCL_0031), MDA-MB-231 breast carcinoma (CRL-12532, RRID:CVCL_0062), NCI-H1876 small cell lung carcinoma (CRL-5902, RRID:CVCL_1503), NCI-H510A small cell lung carcinoma (HTB-184, RRID:CVCL_1565), NCI-H1417 (CRL-5869, RRID:CVCL_1469), and NCI-H196 small cell lung carcinoma (CRL-5823, RRID:CVCL_1509). Dr. Peter Houghton (Greehey Children's Cancer Research Institute, University of Texas Health Science Center, San Antonio, TX) provided Rh-18 rhabdomyosarcoma (RRID:CVCL_1659). Pooled donor human umbilical vein endothelial cells (HUVEC, Lonza, cat. CC-2519) and human mesenchymal stem cells (hMSC, Lonza, cat. PT-2501) were purchased from Lonza (Walkersville, MD).
# Cell Culture. […]
# 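Also: spheroids exposed to agents for 7 days starting day 3 after seeding.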
# 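For viability, T/C in this document: percent of DMSO vehicle control viability with 100% = vehicle.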
smiles,measurement,setting,value
CCN1C(C(=O)NC23CCC(C(=O)O)(CC2)CC3)C(c2cccc(Cl)c2F)C2(C(=O)Nc3cc(Cl)ccc32)C12CCCCC2 (configuration not stated) + CNC(C)C(=O)NC1CN(S(=O)(=O)c2cccc(S(=O)(=O)N3CCC4CCC(C(=O)NC(c5ccccc5)c5ccccc5)N4C(=O)C(NC(=O)C(C)NC)C3)c2)CCC2CCC(C(=O)NC(c3ccccc3)c3ccccc3)N2C1=O,IC50,second compound 0.00316 µM,> 3 µM
same,IC50,second compound 0.01 µM,> 3 µM
same,IC50,second compound 0.0316 µM,> 3 µM
same,IC50,second compound 0.1 µM,> 3 µM
same,IC50,second compound 0.316 µM,> 3 µM
same,IC50,second compound 1 µM,> 3 µM
same,"viability, T/C","second compound 0.00316 µM, first compound 0.00949 µM",116%
same,"viability, T/C","second compound 0.00316 µM, first compound 0.03 µM",92.9%
same,"viability, T/C","second compound 0.00316 µM, first compound 0.0949 µM",107%
same,"viability, T/C","second compound 0.00316 µM, first compound 0.3 µM",106%
same,"viability, T/C","second compound 0.00316 µM, first compound 0.949 µM",95.6%
same,"viability, T/C","second compound 0.00316 µM, first compound 3 µM",107%
same,"viability, T/C","second compound 0.01 µM, first compound 0.00949 µM",109%
same,"viability, T/C","second compound 0.01 µM, first compound 0.03 µM",103%
same,"viability, T/C","second compound 0.01 µM, first compound 0.0949 µM",100%
same,"viability, T/C","second compound 0.01 µM, first compound 0.3 µM",99.8%
same,"viability, T/C","second compound 0.01 µM, first compound 0.949 µM",113%
same,"viability, T/C","second compound 0.01 µM, first compound 3 µM",96.5%
same,"viability, T/C","second compound 0.0316 µM, first compound 0.00949 µM",103%
same,"viability, T/C","second compound 0.0316 µM, first compound 0.03 µM",106%
same,"viability, T/C","second compound 0.0316 µM, first compound 0.0949 µM",103%
same,"viability, T/C","second compound 0.0316 µM, first compound 0.3 µM",102%
same,"viability, T/C","second compound 0.0316 µM, first compound 0.949 µM",115%
same,"viability, T/C","second compound 0.0316 µM, first compound 3 µM",110%
same,"viability, T/C","second compound 0.1 µM, first compound 0.00949 µM",95.9%
same,"viability, T/C","second compound 0.1 µM, first compound 0.03 µM",101%
same,"viability, T/C","second compound 0.1 µM, first compound 0.0949 µM",117%
same,"viability, T/C","second compound 0.1 µM, first compound 0.3 µM",99.1%
same,"viability, T/C","second compound 0.1 µM, first compound 0.949 µM",105%
same,"viability, T/C","second compound 0.1 µM, first compound 3 µM",107%
same,"viability, T/C","second compound 0.316 µM, first compound 0.00949 µM",105%
same,"viability, T/C","second compound 0.316 µM, first compound 0.03 µM",94.2%
same,"viability, T/C","second compound 0.316 µM, first compound 0.0949 µM",91.3%
same,"viability, T/C","second compound 0.316 µM, first compound 0.3 µM",85.3%
same,"viability, T/C","second compound 0.316 µM, first compound 0.949 µM",96.5%
same,"viability, T/C","second compound 0.316 µM, first compound 3 µM",87.1%
same,"viability, T/C","second compound 1 µM, first compound 0.00949 µM",78.6%
same,"viability, T/C","second compound 1 µM, first compound 0.03 µM",87.7%
same,"viability, T/C","second compound 1 µM, first compound 0.0949 µM",76.8%
same,"viability, T/C","second compound 1 µM, first compound 0.3 µM",75.8%
same,"viability, T/C","second compound 1 µM, first compound 0.949 µM",88.8%
same,"viability, T/C","second compound 1 µM, first compound 3 µM",79.5%
